According to publication PMC4774911, “Biochemical Screening of Five Protein Kinases from Plasmodium falciparum against 14,000 Cell-Active Compounds” (PLoS ONE, 2016):
Like-named read-outs stand apart in the source and are kept apart here.

Assays:
[1] = molecular target: T1, Plasmodium falciparum calcium-dependent protein kinase 1 (CDPK1) (Plasmodium falciparum, UniProt P62344); assay: CDPK1 Kinase-Glo ATP-consumption screen and dose-response; format: biochemical; settings: hits below 1 uM; read-out: CDPK1 IC50
T1 construct: 6-Histidine (N); made in house
T1 sequence (P62344 whole entry): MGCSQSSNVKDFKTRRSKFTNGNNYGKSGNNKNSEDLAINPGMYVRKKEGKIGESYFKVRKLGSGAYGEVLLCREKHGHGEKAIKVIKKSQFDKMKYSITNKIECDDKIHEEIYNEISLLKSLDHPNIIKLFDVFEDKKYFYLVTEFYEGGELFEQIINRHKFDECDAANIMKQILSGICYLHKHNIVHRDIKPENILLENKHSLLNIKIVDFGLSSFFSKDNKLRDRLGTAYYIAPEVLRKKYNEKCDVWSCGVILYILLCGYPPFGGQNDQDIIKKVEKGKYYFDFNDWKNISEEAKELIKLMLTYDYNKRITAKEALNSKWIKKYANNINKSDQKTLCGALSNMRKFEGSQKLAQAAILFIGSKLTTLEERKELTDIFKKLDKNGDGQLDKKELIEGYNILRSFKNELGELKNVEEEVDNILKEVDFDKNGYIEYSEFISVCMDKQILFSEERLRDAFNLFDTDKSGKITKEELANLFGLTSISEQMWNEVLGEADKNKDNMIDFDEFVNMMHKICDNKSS
In short: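 Single-point testing used 1 μM final compound, then dose-response, against CDPK4 and CDPK1 with Syntide-2 (40 μM) as substrate. After 90 min, reactions were halted by 5 mM EGTA, and kinase activity was inferred from depleted ATP via Kinase-Glo luminescence.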

[2] = molecular target: T2, Plasmodium falciparum calcium-dependent protein kinase 4 (CDPK4) (Plasmodium falciparum, UniProt Q8IBS5); assay: CDPK4 Kinase-Glo ATP-consumption screen and dose-response; format: biochemical; settings: hits below 1 uM
T2 construct: 6-Histidine (N); made in house
T2 sequence (Q8IBS5 1-528): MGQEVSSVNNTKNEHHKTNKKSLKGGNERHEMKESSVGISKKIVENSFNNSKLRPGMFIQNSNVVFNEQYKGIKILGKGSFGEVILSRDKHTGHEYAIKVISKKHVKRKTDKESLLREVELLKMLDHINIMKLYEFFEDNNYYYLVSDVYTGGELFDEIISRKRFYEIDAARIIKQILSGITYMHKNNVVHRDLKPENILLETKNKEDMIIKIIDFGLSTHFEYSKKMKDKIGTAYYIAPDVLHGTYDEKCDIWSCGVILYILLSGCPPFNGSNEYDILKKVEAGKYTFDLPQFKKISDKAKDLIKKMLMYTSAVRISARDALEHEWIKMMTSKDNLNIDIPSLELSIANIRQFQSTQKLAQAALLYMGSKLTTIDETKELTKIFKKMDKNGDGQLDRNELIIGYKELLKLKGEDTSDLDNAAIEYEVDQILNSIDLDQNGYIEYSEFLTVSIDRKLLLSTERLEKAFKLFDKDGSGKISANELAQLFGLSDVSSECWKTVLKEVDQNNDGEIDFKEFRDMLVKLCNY
Description: Biochemical assays were performed in white 384-well plates (Nunc). Liquid transfers were done manually with 8-channel pipets. Compounds were initially tested in a single-point screen (final concentration 1 μM). […] The catalytic activity of each kinase was considered proportional to ATP consumed, as determined from measurements of residual [ATP] with the luciferase-based reagent Kinase-Glo (Promega) following incubation. Luminescence (proportional to residual [ATP]) was measured on the plate readers FLx800 (BioTek Instruments, Winooski, VT, USA) and MicroBeta^2 (PerkinElmer, Waltham, MA, USA). Incubation times were chosen to ensure near-complete ATP depletion in the absence of inhibition, thus maximizing the difference in signal between inhibited and uninhibited wells.
40 μM Syntide-2 was used as a substrate; BKI-1 [14] was used as a control inhibitor, while reaction mixtures lacking Syntide-2 were included as an additional negative control. Incubation time was 90 minutes. Reactions were terminated by adding excess EGTA (5 mM), which sequesters Ca^2+ and halts calcium-dependent kinase activity.

PKG = PKG (Plasmodium falciparum, UniProt Q8I719); assay: PKG IC50 (supplementary data file); format: biochemical
Chain of PKG (Q8I719 whole entry): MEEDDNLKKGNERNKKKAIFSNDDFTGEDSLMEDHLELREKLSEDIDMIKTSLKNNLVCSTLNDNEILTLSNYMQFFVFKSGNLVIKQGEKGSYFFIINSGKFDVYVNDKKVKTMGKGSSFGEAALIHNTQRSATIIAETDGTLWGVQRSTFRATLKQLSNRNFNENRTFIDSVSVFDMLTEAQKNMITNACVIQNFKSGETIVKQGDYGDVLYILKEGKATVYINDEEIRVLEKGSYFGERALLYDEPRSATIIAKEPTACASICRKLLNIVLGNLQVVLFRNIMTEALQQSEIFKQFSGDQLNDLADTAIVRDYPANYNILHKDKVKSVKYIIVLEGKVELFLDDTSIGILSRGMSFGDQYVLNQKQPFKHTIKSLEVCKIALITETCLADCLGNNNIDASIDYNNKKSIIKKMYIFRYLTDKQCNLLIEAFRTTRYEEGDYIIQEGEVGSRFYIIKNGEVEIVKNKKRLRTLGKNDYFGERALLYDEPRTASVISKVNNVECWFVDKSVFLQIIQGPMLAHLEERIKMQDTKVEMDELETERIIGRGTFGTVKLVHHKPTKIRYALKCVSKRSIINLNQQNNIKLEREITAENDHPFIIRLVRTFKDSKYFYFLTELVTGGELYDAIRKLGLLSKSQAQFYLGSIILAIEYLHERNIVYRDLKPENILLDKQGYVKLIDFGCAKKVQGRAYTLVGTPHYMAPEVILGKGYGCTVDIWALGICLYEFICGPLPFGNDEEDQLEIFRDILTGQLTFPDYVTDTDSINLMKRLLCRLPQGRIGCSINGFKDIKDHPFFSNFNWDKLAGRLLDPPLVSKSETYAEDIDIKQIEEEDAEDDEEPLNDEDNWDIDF
From the text: Supplement pone.0149996.s003.xls, sheet "combined_1_sorted"

HepG2 cells = settings: cited from earlier work
P. falciparum 3D7 cells = settings: 3D7, cited from earlier work
DD2 [3] = test system: DD2; parameters: method as in downloaded from ChEMBL; settings: ref downloaded from ChEMBL; cited from earlier work
3D7 PFLDH [4] = test system: 3D7 PFLDH; parameters: method as in downloaded from ChEMBL; settings: ref downloaded from ChEMBL; cited from earlier work
DD2 [5] = test system: DD2; parameters: method as in F.J. Gamo et al., Nature 2010; settings: downloaded from ChEMBL, ref F.J. Gamo et al., Nature 2010; cited from earlier work
3D7 PFLDH [6] = test system: 3D7 PFLDH; parameters: method as in F.J. Gamo et al., Nature 2010; concentration or dose not given beside the values; settings: downloaded from ChEMBL, ref F.J. Gamo et al., Nature 2010; cited from earlier work
[7] = molecular target: T3, Plasmodium falciparum protein kinase 6 (PK6) (Plasmodium falciparum, UniProt Q8IDW1); assay: biochemical; settings: hits below 1 uM; read-out: PK6 IC50
T3 construct: 6-Histidine (N); made in house
T3 sequence (Q8IDW1 1-305): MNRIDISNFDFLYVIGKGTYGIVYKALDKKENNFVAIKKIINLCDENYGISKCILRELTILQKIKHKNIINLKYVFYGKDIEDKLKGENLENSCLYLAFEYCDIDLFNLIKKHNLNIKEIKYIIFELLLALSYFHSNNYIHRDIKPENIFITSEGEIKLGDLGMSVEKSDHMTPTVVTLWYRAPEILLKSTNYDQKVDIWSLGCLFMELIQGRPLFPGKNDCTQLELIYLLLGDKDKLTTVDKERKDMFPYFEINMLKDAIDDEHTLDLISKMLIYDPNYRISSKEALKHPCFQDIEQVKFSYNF

[8] = HEPG2, ref downloaded from ChEMBL
[9] = HepG2, downloaded from ChEMBL, ref F.J. Gamo et al., Nature 2010
[10] = downloaded from ChEMBL, ref F.J. Gamo et al., Nature 2010

SMILES	IC50 [1] [nM]	IC50 [2] [nM]	IC50 (PKG) [nM]	PCT_INHIB_HEPG2 (HepG2 cells; [8])	PCT_IHB_3D7 (P. falciparum 3D7 cells; ref downloaded from ChEMBL)	pXC50_3D7 (P. falciparum 3D7 cells; ref downloaded from ChEMBL)	PCT_INHB_DD2 (DD2 [3])	PCT_INHIB_3D7_PFLDH (3D7 PFLDH [4])	PCT_INHIB_HEPG2 (HepG2 cells; [9]) [%]	PCT_IHB_3D7 (P. falciparum 3D7 cells; [10]) [%]	PCT_INHB_DD2 (DD2 [5]) [%]	PCT_INHIB_3D7_PFLDH (3D7 PFLDH [6]) [%]	pXC50_3D7 (P. falciparum 3D7 cells; [10])	IC50 [7] [nM]
Cl.NC[C@H](CC1CCCCC1)NC(=O)c1ccc(-c2ccnc3[nH]ccc23)s1 [TCMDC-134150]	492	527	1020	39	98	6.022	4	5						
CCn1c(-c2nonc2N)nc2c(-c3cccc(NC(=O)NC45CC6CC(CC(C6)C4)C5)c3)ncc(OCCCN)c21.O=C(O)C(F)(F)F [TCMDC-136246]	84	158	89						100	94	63	0		
NCC(NC(=O)c1ccc(-c2c[nH]c3ncccc23)s1)c1ccccc1.O=CO (stereo not shown) [TCMDC-134154]	29	473	430	52	95	6.262	87	0						
CCn1c(-c2nonc2N)nc2c(-c3cccc(NC(=O)Nc4ccc5c(c4)CCC5)c3)ncc(OCCCN)c21.O=C(O)C(F)(F)F [TCMDC-136191]	85	59	5050						26	99	94	0	6.106	
O=C(O)C(F)(F)F.O=c1[nH]ccc2nc(N[C@@H]3CCNC3)nc(Nc3cc(Cl)cc(Cl)c3)c12 [TCMDC-135052]	33	446	486						99	100	99	0	6.132	
Cc1cccc(Nc2nc(NCCCCN)nc3cc[nH]c(=O)c23)c1.O=C(O)C(F)(F)F [TCMDC-134946]	566	166	1580						34	98	97	0	6.135	
CCn1c(-c2nonc2N)nc2c(-c3ccccc3)ncc(OCCCCNCCc3ncc[nH]3)c21.O=C(O)C(F)(F)F [TCMDC-136000]	94	43	953						34	92	42	0	6.07	
CCn1c(-c2nonc2N)nc2c(-c3cc4ccccc4s3)ncc(C(=O)N3CCC(N)C3)c21.O=C(O)C(F)(F)F (stereo not shown) [TCMDC-135281]		89	6940						99	98	66	5	6.06	
NS(=O)(=O)c1cccc(Nc2nc(N[C@@H]3CCNC3)nc3cc[nH]c(=O)c23)c1.O=C(O)C(F)(F)F [TCMDC-135057]	83	135	1850						7	99	98	0	6.027	
CCn1c(-c2nonc2N)nc2c(-c3cccc(Cl)c3)ncc(OCCCNCc3cnc(C)nc3N)c21.O=C(O)C(F)(F)F [TCMDC-135956]	271	145	9210						21	93	48	3	5.996	
CCn1c(-c2nonc2N)nc2c(-c3cccc(NC(=O)Nc4ccc(C#N)cc4)c3)ncc(OCCCN)c21.O=C(O)C(F)(F)F [TCMDC-136194]	235	84	595						1	85	80	0	5.821	
Cc1cccc(Nc2nc(N[C@@H]3CCCNC3)nc3cc[nH]c(=O)c23)c1.O=C(O)C(F)(F)F [TCMDC-134835]	23	76	422						55	99	98	1	6.166	
CCn1c(-c2nonc2N)nc2c(-c3cccc(Cl)c3)ncc(OCCCNCCc3c[nH]cn3)c21.O=C(O)C(F)(F)F [TCMDC-135919]	138	46	2210						16	100	98	0	6.007	
CCn1c(-c2nonc2N)nc2c(-c3ccccc3)ncc(OCCCNCCCN3CCOCC3)c21.O=C(O)C(F)(F)F [TCMDC-135858]	42	38	126						28	100	91	0	6.174	
CCn1c(-c2nonc2N)nc2c(-c3cccc(NC(=O)Nc4cccc(C#N)c4)c3)ncc(OCCCN)c21.O=C(O)C(F)(F)F [TCMDC-136195]	182	170	158						37	92	80	0	6.1747	
NCCCNc1nc(Nc2cccc(C(N)=O)c2)c2c(=O)[nH]ccc2n1.O=C(O)C(F)(F)F [TCMDC-135053]	750	967	7330						9	99	49	0	6.226	
CNC(=O)c1ccccc1Nc1nc(Nc2ccc(CCN3CCN(C)CC3)cc2)ncc1Cl.Cl [TCMDC-133800]	47	361	881						76	97	98	5	6.1864	70
CCn1c(-c2nonc2N)nc2c(-c3cccc(NC(=O)Nc4cccc(Cl)c4)c3)ncc(OCCCN)c21.O=C(O)C(F)(F)F [TCMDC-136193]	379	81	926						9	91	78	0	6.027	
CCn1c(-c2nonc2N)nc2c(-c3cccc(NC(=O)Nc4ccc(C(F)(F)F)cc4)c3)ncc(OCCCN)c21.O=C(O)C(F)(F)F [TCMDC-136179]	959	30	264						36	94	63	6	5.981	
